From patent US8372863B2, “Tetrahydro-1H-pyrrolo fused pyridones” (Merck Sharp & Dohme Corp., priority 2008, dated 2013) come the findings set out here.

pIC50: −log10 of the molar value. Counter-ions that a name gives are not always drawn.

Usually pIC50 stands for the IC50 on a negative log10 scale, so that one unit is a factor of ten.

Sequence of PHD2 (Q9GZT9 whole entry): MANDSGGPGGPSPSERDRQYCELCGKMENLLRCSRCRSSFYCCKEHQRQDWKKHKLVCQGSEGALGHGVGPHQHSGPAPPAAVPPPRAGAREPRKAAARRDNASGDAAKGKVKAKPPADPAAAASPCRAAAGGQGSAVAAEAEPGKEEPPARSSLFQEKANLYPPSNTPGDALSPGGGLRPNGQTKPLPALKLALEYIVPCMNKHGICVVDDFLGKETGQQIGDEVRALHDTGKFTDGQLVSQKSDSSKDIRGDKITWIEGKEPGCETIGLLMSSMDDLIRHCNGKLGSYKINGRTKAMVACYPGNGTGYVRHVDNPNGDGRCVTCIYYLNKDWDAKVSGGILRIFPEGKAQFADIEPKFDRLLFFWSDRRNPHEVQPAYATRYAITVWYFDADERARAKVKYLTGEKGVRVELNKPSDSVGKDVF

One test concerns the target PHD2 (Homo sapiens, UniProt Q9GZT9). As to the kind of experiment: PHD2 / HIF-1α peptide hydroxylation assay with time resolved fluorescence readout (PHD2 binding activity). The class given is biochemical. The following applies: FLAG-tagged full length PHD2; 0.2 μM 2-oxoglutarate, 0.5 μM HIF-1α peptide; read-out: PHD2 Activity (PHD2 binding activity expressed as IC50). As to the method:
After a 30 min preincubation at room temperature, the enzymatic reactions were initiated by the addition of 4 μL of substrates (final concentrations of 0.2 μM 2-oxoglutarate and 0.5 μM HIF-1α peptide biotinyl-DLDLEMLAPYIPMDDDFQL). After 2 hr at room temperature, the reactions were terminated and signals were developed by the addition of a 25 μL quench/detection mix to a final concentration of 1 mM ortho-phenanthroline, 0.1 mM EDTA, 0.5 nM anti-(His)6 LANCE reagent (Perkin-Elmer Life Sciences), 100 nM AF647-labeled streptavidin (Invitrogen), and 2 μg/ml (His)6-VHL complex (S. Tan(2001) Protein Expr. Purif 21, 224-234). The ratio of time resolved fluorescence signals at 665 and 620 nm was determined, and percent inhibition was calculated relative to an uninhibited control sample run in parallel.
Take `O=C(O)CNC(=O)c1c(O)c2c(n(Cc3cccc(-c4ccc(F)nc4)c3)c1=O)CN(C(=O)c1cscn1)C2` [Example 53, N-{[1-[3-(6-fluoropyridin-3-yl)benzyl]-4-hydroxy-2-oxo-6-(1,3-thiazo1-4-ylcarbonyl)-2,5,6,7-tetrahydro-1H-pyrrolo[3,4-b]pyridin-3-yl]carbonyl}glycine]: the pIC50 was over 8.00. Still for that read-out and setting: to `O=C(O)CNC(=O)c1c(O)c2c(n(Cc3ccc(C(F)(F)F)cc3)c1=O)CN(C(=O)c1cccc(Cl)c1)C2` [Example 8, N-({6-(3-chlorobenzoyl)-4-hydroxy-2-oxo-1-[4-(trifluoromethyl)benzyl]-2,5,6,7-tetrahydro-1H-pyrrolo[3,4-b]pyridin-3-yl}carbonyl)glycine] belongs over 8.00.

As to `O=C(O)CNC(=O)c1c(O)c2c(n(Cc3ccc(C(F)(F)F)cc3)c1=O)CN(C(=O)N1CCCC1)C2` [Example 17, N-({4-hydroxy-2-oxo-6-(pyrrolidin-1-ylcarbonyl)-1-[4-(trifluoromethyl)benzyl]-2,5,6,7-tetrahydro-1H-pyrrolo[3,4-b]pyridin-3-yl}carbonyl)glycine], the pIC50 is over 8.00.

`N#Cc1cccnc1N1Cc2c(O)c(C(=O)NCC(=O)O)c(=O)n(Cc3ccc(C(F)(F)F)cc3)c2C1` [Example 42, N-({6-(3-cyanopyridinium-2-yl)-4-hydroxy-2-oxo-1-[4-(trifluoromethyl)benzyl]-2,5,6,7-tetrahydro-1H-pyrrolo[3,4-b]pyridin-3-yl}carbonyl)glycine trifluoroacetate]: the pIC50 is over 8.00. On the same count and under the same terms, under `C=CCCC(=O)N1Cc2c(O)c(C(=O)NCC(=O)O)c(=O)n(Cc3ccc(Br)cc3)c2C1C` (stereo not shown) [Example 5, N-{[1-(4-bromobenzyl)-4-hydroxy-7-methyl-2-oxo-6-pent-4-enoyl-2,5,6,7-tetrahydro-1H-pyrrolo[3,4-b]pyridin-3-yl]carbonyl}glycine] stands over 8.00; under `O=C(O)CNC(=O)c1c(O)c2c(n(Cc3cccc(-c4ccccc4)c3)c1=O)CN(C(=O)c1cscn1)C2` [Example 44, N-{[1-(biphenyl-3-ylmethyl)-4-hydroxy-2-oxo-6-(1,3-thiazol-4-ylcarbonyl)-2,5,6,7-tetrahydro-1H-pyrrolo[3,4-b]pyridin-3-yl]carbonyl}glycine], over 8.00; under `O=C(O)CNC(=O)c1c(O)c2c(n(Cc3ccc(C(F)(F)F)cc3)c1=O)CN(C(=O)c1csnn1)C2` [Example 35, N-({4-hydroxy-2-oxo-6-(1,2,3-thiadiazol-4-ylcarbonyl)-1-[4-(trifluoromethyl)benzyl}-2,5,6,7-tetrahydro-1H-pyrrolo[3,4-b]pyridin-3-yl}carbonyl)glycine], over 8.00. For `Cc1ccc(C(=O)N2Cc3c(O)c(C(=O)NCC(=O)O)c(=O)n(Cc4ccc(C(F)(F)F)cc4)c3C2)cn1` [Example 26, N-({4-hydroxy-6-[(6-methylpyridin-3-yl)carbonyl]-2-oxo-1-[4-(trifluoromethyl)benzyl]-2,5,6,7-tetrahydro-1H-pyrrolo[3,4-b]pyridin-3-yl}carbonyl)glycine], the negative-log IC50 (pIC50) was over 8.00. Same read-out and setting: under `O=C(O)CNC(=O)c1c(O)c2c(n(Cc3ccccc3)c1=O)CN(C(=O)c1cscn1)C2` [Example 54, N-{[1-benzyl-4-hydroxy-2-oxo-6-(1,3-thiazol-4-ylcarbonyl)-2,5,6,7-tetrahydro-1H-pyrrolo[3,4-b]pyridin-3-yl]carbonyl}glycine] stands over 8.00.

Still in this test, the particulars now being: PHD2 Activity (PHD2 binding activity expressed as IC50), FLAG-tagged full length PHD2; 0.2 μM 2-oxoglutarate, 0.5 μM HIF-1α peptide.
For the compound `O=C(O)CNC(=O)c1c(O)c2c(n(Cc3ccc(C(F)(F)F)cc3)c1=O)CN(C(=O)C1CC1)C2` [Example 13, N-({6-(cyclopropylcarbonyl)-4-hydroxy-2-oxo-1-[4-(trifluoromethyl)benzyl]-2,5,6,7-tetrahydro-1H-pyrrolo[3,4-b]pyridin-3-yl}carbonyl)glycine], the pIC50 is over 8.00.
